Measured values: the NIST ThermoML archive (doi:10.1016/j.jct.2006.05.004)
Numbers after ± are expanded uncertainties.

Tests used:
[1] = excess molar enthalpy (molar enthalpy of mixing); xn = mol fraction of the nth substance listed; details: 298.15 K, 101 kPa, Liquid
[2] = xn = mol fraction of the nth substance listed; details: 298.15 K, 101 kPa, Liquid

BrCCCCBr [1,4-dibromobutane] + COC(C)=O
Details | excess molar enthalpy [kcal/mol] | mass density [kg/m3]
[1], x2 = 0.0848 | 0.0432 ± 0.00105 | –
[1], x2 = 0.1755 | 0.0741 ± 0.00153 | –
[1], x2 = 0.2635 | 0.0955 ± 0.00184 | –
[1], x2 = 0.3449 | 0.109 ± 0.00206 | –
[1], x2 = 0.4161 | 0.116 ± 0.00217 | –
[1], x2 = 0.4816 | 0.118 ± 0.0022 | –
[1], x2 = 0.5389 | 0.115 ± 0.00215 | –
[1], x2 = 0.5872 | 0.109 ± 0.00206 | –
[1], x2 = 0.6316 | 0.103 ± 0.00196 | –
[1], x2 = 0.6695 | 0.0954 ± 0.00184 | –
[1], x2 = 0.7038 | 0.089 ± 0.00174 | –
[1], x2 = 0.755 | 0.0763 ± 0.00155 | –
[1], x2 = 0.8095 | 0.062 ± 0.00134 | –
[1], x2 = 0.8632 | 0.046 ± 0.0011 | –
[1], x2 = 0.9128 | 0.0316 ± 0.00086 | –
[1], x2 = 0.9584 | 0.0149 ± 0.000621 | –
[2], x2 = 0.0837 | – | 1770.14 ± 6.4
[2], x2 = 0.1689 | – | 1713.04 ± 5.8
[2], x2 = 0.2373 | – | 1664.79 ± 5.3
[2], x2 = 0.3235 | – | 1601.13 ± 4.6
[2], x2 = 0.3783 | – | 1558.38 ± 4.2
[2], x2 = 0.4433 | – | 1505.87 ± 3.8
[2], x2 = 0.5073 | – | 1451.51 ± 3.4
[2], x2 = 0.5682 | – | 1397.42 ± 3
[2], x2 = 0.6216 | – | 1347.79 ± 2.7
[2], x2 = 0.6771 | – | 1293.95 ± 2.3
[2], x2 = 0.7431 | – | 1226.93 ± 1.9
[2], x2 = 0.8273 | – | 1135.92 ± 1.4
[2], x2 = 0.9151 | – | 1033.42 ± 0.94
[2], x2 = 0.9603 | – | 977.5 ± 0.87

BrCCCCCBr [1,5-dibromopentane] + COC=O
Details | excess molar enthalpy [kcal/mol] | mass density [kg/m3]
[1], x2 = 0.1086 | 0.101 ± 0.00194 | –
[1], x2 = 0.2259 | 0.174 ± 0.00311 | –
[1], x2 = 0.336 | 0.227 ± 0.00382 | –
[1], x2 = 0.4363 | 0.255 ± 0.0043 | –
[1], x2 = 0.5163 | 0.265 ± 0.00454 | –
[1], x2 = 0.5848 | 0.264 ± 0.00454 | –
[1], x2 = 0.64 | 0.254 ± 0.0043 | –
[1], x2 = 0.6892 | 0.241 ± 0.00406 | –
[1], x2 = 0.7311 | 0.225 ± 0.00382 | –
[1], x2 = 0.7667 | 0.207 ± 0.00359 | –
[1], x2 = 0.8146 | 0.18 ± 0.00311 | –
[1], x2 = 0.8709 | 0.14 ± 0.00263 | –
[1], x2 = 0.9225 | 0.0935 ± 0.00186 | –
[1], x2 = 0.9675 | 0.046 ± 0.00117 | –
[2], x2 = 0.1109 | – | 1653.22 ± 5.5
[2], x2 = 0.2235 | – | 1607 ± 4.9
[2], x2 = 0.3094 | – | 1567.09 ± 4.5
[2], x2 = 0.3956 | – | 1522.56 ± 4
[2], x2 = 0.4606 | – | 1485.39 ± 3.6
[2], x2 = 0.5307 | – | 1441.42 ± 3.3
[2], x2 = 0.5985 | – | 1394.16 ± 2.9
[2], x2 = 0.6548 | – | 1350.94 ± 2.6
[2], x2 = 0.7035 | – | 1310.4 ± 2.4
[2], x2 = 0.753 | – | 1265.54 ± 2.1
[2], x2 = 0.7889 | – | 1230.37 ± 1.9
[2], x2 = 0.8347 | – | 1181.99 ± 1.6
[2], x2 = 0.9065 | – | 1097.57 ± 1.2
[2], x2 = 0.9653 | – | 1017.86 ± 0.91
[2], x2 = 0.9733 | – | 1006.52 ± 0.87

BrCCCCCBr [1,5-dibromopentane] + CCCC(=O)OC
Details | excess molar enthalpy [kcal/mol] | mass density [kg/m3]
[1], x2 = 0.0788 | 0.015 ± 0.000598 | –
[1], x2 = 0.1742 | 0.0254 ± 0.000765 | –
[1], x2 = 0.2762 | 0.0325 ± 0.000884 | –
[1], x2 = 0.374 | 0.0341 ± 0.000908 | –
[1], x2 = 0.461 | 0.0309 ± 0.00086 | –
[1], x2 = 0.5359 | 0.0249 ± 0.000765 | –
[1], x2 = 0.5693 | 0.0214 ± 0.000693 | –
[1], x2 = 0.6313 | 0.0152 ± 0.000598 | –
[1], x2 = 0.7089 | 0.0093 ± 0.000526 | –
[1], x2 = 0.7917 | 0.00514 ± 0.000454 | –
[1], x2 = 0.8725 | 0.00258 ± 0.000406 | –
[1], x2 = 0.946 | 0.00131 ± 0.000382 | –
[2], x2 = 0.0754 | – | 1642.8 ± 5.5
[2], x2 = 0.1463 | – | 1593.12 ± 5
[2], x2 = 0.2087 | – | 1548.48 ± 4.5
[2], x2 = 0.2699 | – | 1503.86 ± 4.1
[2], x2 = 0.3456 | – | 1447.37 ± 3.6
[2], x2 = 0.454 | – | 1363.99 ± 3
[2], x2 = 0.573 | – | 1268.9 ± 2.3
[2], x2 = 0.6279 | – | 1223.66 ± 2
[2], x2 = 0.6902 | – | 1171.2 ± 1.7
[2], x2 = 0.7398 | – | 1128.65 ± 1.4
[2], x2 = 0.7971 | – | 1078.54 ± 1.2
[2], x2 = 0.8961 | – | 989.47 ± 0.8
[2], x2 = 0.9526 | – | 937.22 ± 0.93

BrCCCCCCBr [1,6-dibromohexane] + COC(C)=O
Details | excess molar enthalpy [kcal/mol] | mass density [kg/m3]
[1], x2 = 0.1165 | 0.063 ± 0.00136 | –
[1], x2 = 0.2329 | 0.104 ± 0.00198 | –
[1], x2 = 0.317 | 0.13 ± 0.00239 | –
[1], x2 = 0.4064 | 0.148 ± 0.00263 | –
[1], x2 = 0.4865 | 0.156 ± 0.00287 | –
[1], x2 = 0.553 | 0.156 ± 0.00287 | –
[1], x2 = 0.6074 | 0.151 ± 0.00263 | –
[1], x2 = 0.6546 | 0.143 ± 0.00263 | –
[1], x2 = 0.6988 | 0.135 ± 0.00239 | –
[1], x2 = 0.7443 | 0.124 ± 0.00229 | –
[1], x2 = 0.7905 | 0.108 ± 0.00206 | –
[1], x2 = 0.837 | 0.0889 ± 0.00174 | –
[1], x2 = 0.8808 | 0.0701 ± 0.00148 | –
[1], x2 = 0.9257 | 0.0424 ± 0.00105 | –
[1], x2 = 0.9683 | 0.0205 ± 0.000717 | –
[2], x2 = 0.2073 | – | 1527.77 ± 4.4
[2], x2 = 0.2887 | – | 1489.28 ± 4
[2], x2 = 0.368 | – | 1448.7 ± 3.6
[2], x2 = 0.44 | – | 1408.44 ± 3.2
[2], x2 = 0.5134 | – | 1363.84 ± 2.9
[2], x2 = 0.5691 | – | 1327.2 ± 2.6
[2], x2 = 0.6301 | – | 1284.18 ± 2.3
[2], x2 = 0.7305 | – | 1205.44 ± 1.8
[2], x2 = 0.7765 | – | 1165.56 ± 1.6
[2], x2 = 0.8189 | – | 1126.42 ± 1.4
[2], x2 = 0.8614 | – | 1084.46 ± 1.2
[2], x2 = 0.8974 | – | 1046.81 ± 0.99
[2], x2 = 0.9345 | – | 1005.74 ± 0.82
[2], x2 = 0.9663 | – | 968.1 ± 0.88
